In the OligoGym collection:
Bases are written 5' to 3'; sugars and linkages follow in the same order, as letters with counts (s phosphorothioate, o phosphodiester; PS: all linkages phosphorothioate). The collection does not say whether C is 5-methylated. l = locked nucleic acid (LNA); d = 2'-deoxy (DNA)

target: Tau; assay: rat primary cortical neurons, FLIPR, 25 uM ASO

Row | Sequence | calcium oscillation score
1 | GGAAAGATGAAATTTGCTCT (sugars l3 d14 l3, PS) | 74.1 % of control
2 | GGAACTATTGATAA (sugars l3 d8 l3, PS) | 0 % of control
3 | GGACGTGGGTGATATTGTCC (sugars l3 d14 l3, PS) | 0 % of control
4 | GGACGTTGCTAAGATC (sugars l3 d10 l3, PS) | 3.32 % of control
5 | GGAGGCAGACACCTCGTCAG (sugars l3 d14 l3, PS) | 51.8 % of control
6 | GGAGTGCTCTTAGCATCAGA (sugars l3 d14 l3, PS) | 14.8 % of control
7 | GGATGTTGCCTAATGA (sugars l3 d10 l3, PS) | 0 % of control
8 | GGATGTTGCCTAATGAGCCA (sugars l3 d14 l3, PS) | 0 % of control
9 | GGCATGATTGTGGGC (sugars l3 d9 l3, PS) | 5.22 % of control
10 | GGCATGATTGTGGGCT (sugars l3 d10 l3, PS) | 6.12 % of control
11 | GGCCACCTCCTGGTTT (sugars l3 d10 l3, PS) | 39.3 % of control
12 | GGCCACCTCCTGGTTTATGA (sugars l3 d14 l3, PS) | 0 % of control
13 | GGCCTGATCACAAACC (sugars l3 d10 l3, PS) | 132 % of control
14 | GGCCTGATCACAAACCCTGC (sugars l3 d14 l3, PS) | 9.07 % of control
15 | GGCGACTTGTACAC (sugars l3 d8 l3, PS) | 117 % of control
16 | GGCGACTTGTACACGA (sugars l3 d10 l3, PS) | 69.4 % of control
17 | GGCGACTTGTACACGATCTC (sugars l3 d14 l3, PS) | 46.6 % of control
18 | GGCGAGTCTACCATGT (sugars l3 d10 l3, PS) | 43.4 % of control
19 | GGCGAGTCTACCATGTCGAT (sugars l3 d14 l3, PS) | 91.5 % of control
20 | GGCGCAGGCGCGAGCA (sugars l3 d10 l3, PS) | 7.62 % of control
21 | GGCGGCGCAGGCGCGA (sugars l3 d10 l3, PS) | 49.6 % of control
22 | GGCGGTGACTGCGA (sugars l3 d8 l3, PS) | 41.7 % of control
23 | GGCGGTGACTGCGAG (sugars l3 d9 l3, PS) | 51.5 % of control

Row | Sequence | calcium oscillation score
24 | GGCGTTCTCGCGGAAG (sugars l3 d10 l3, PS) | 102 % of control
25 | GGCTTTGGCGTTCTCG (sugars l3 d10 l3, PS) | 1.35 % of control
26 | GGGACCCAATCTTCGACTGG (sugars l3 d14 l3, PS) | 0 % of control
27 | GGGACGTGGGTGATAT (sugars l3 d10 l3, PS) | 27.6 % of control
28 | GGGACGTGGGTGATATTGTC (sugars l3 d14 l3, PS) | 0 % of control
29 | GGGAGATTCTTTCAGGCCAG (sugars l3 d14 l3, PS) | 48.1 % of control
30 | GGGAGGCAGACACCTC (sugars l3 d10 l3, PS) | 42.8 % of control
31 | GGGAGGCAGACACCTCGTCA (sugars l3 d14 l3, PS) | 102 % of control
32 | GGGCCTGATCACAAACCCTG (sugars l3 d14 l3, PS) | 42.7 % of control
33 | GGGCGAGTCTACCATG (sugars l3 d10 l3, PS) | 16.3 % of control
34 | GGGCGAGTCTACCATGTCGA (sugars l3 d14 l3, PS) | 66 % of control
35 | GGGTGATATTGTCCAGGGAC (sugars l3 d14 l3, PS) | 0 % of control
36 | GGTCAACTGGTTTGTA (sugars l3 d10 l3, PS) | 55.6 % of control
37 | GGTCAACTGGTTTGTAGACT (sugars l3 d14 l3, PS) | 6.9 % of control
38 | GGTCTGAGCTACCAGG (sugars l3 d10 l3, PS) | 14.8 % of control
39 | GGTCTGGCATGGGC (sugars l3 d8 l3, PS) | 0 % of control
40 | GGTCTGGCATGGGCA (sugars l3 d9 l3, PS) | 59 % of control
41 | GGTGATATTGTCCAGG (sugars l3 d10 l3, PS) | 18.5 % of control
42 | GGTGATATTGTCCAGGGACC (sugars l3 d14 l3, PS) | 0 % of control
43 | GGTGCTCTGGTCAA (sugars l3 d8 l3, PS) | 102 % of control
44 | GGTGCTCTGGTCAAGG (sugars l3 d10 l3, PS) | 14.9 % of control
45 | GGTTAAGTGATTAACCAATT (sugars l3 d14 l3, PS) | 157 % of control
46 | GGTTAGCCCTAAAGTCCCAG (sugars l3 d14 l3, PS) | 37.3 % of control

Row | Sequence | calcium oscillation score
47 | GGTTGGATCAGAGGGT (sugars l3 d10 l3, PS) | 7.41 % of control
48 | GGTTTATGATGGATGTTGCC (sugars l3 d14 l3, PS) | 26.6 % of control
49 | GGTTTGTAGACTATT (sugars l3 d9 l3, PS) | 0 % of control
50 | GGTTTGTAGACTATTTGCAC (sugars l3 d14 l3, PS) | 0 % of control
51 | GTAACCAACTTTCATC (sugars l3 d9 l4, PS) | 74.8 % of control
52 | GTAACCAACTTTCATCT (sugars l2 d12 l3, PS) | 78.7 % of control
53 | GTAGACTATTTGCA (sugars l3 d8 l3, PS) | 105 % of control
54 | GTAGACTATTTGCAC (sugars l3 d9 l3, PS) | 95.2 % of control
55 | GTAGACTATTTGCACACTGC (sugars l3 d14 l3, PS) | 11.1 % of control
56 | GTATCCAGCCATATTTCAAC (sugars l3 d14 l3, PS) | 36.7 % of control
57 | GTCAACTGGTTTGT (sugars l3 d8 l3, PS) | 89.4 % of control
58 | GTCAATTTAAATGGA (sugars l3 d9 l3, PS) | 66.7 % of control
59 | GTCACCACTTTAATCT (sugars l4 d9 l3, PS) | 85.3 % of control
60 | GTCACCTTGCTCAGGT (sugars l3 d10 l3, PS) | 7.67 % of control
61 | GTCAGCTAGCGTGGCG (sugars l3 d10 l3, PS) | 27.6 % of control
62 | GTCATCGCTTCCAGTC (sugars l3 d10 l3, PS) | 85.7 % of control
63 | GTCCAAACTTTTACTCT (sugars l4 d11 l2, PS) | 75.7 % of control
64 | GTCCACAAACCAACTCA (sugars l3 d11 l3, PS) | 91.3 % of control
65 | GTCCAGGGACCCAATCTTCG (sugars l3 d14 l3, PS) | 0 % of control
66 | GTCCCCCAAAATATCTC (sugars l3 d12 l2, PS) | 72.1 % of control
67 | GTCCCGAGCCAAAG (sugars l3 d8 l3, PS) | 0 % of control
68 | GTCCCGAGCCAAAGC (sugars l3 d9 l3, PS) | 31.3 % of control
69 | GTCCCGAGCCAAAGCC (sugars l3 d10 l3, PS) | 31.3 % of control

Row | Sequence | calcium oscillation score
70 | GTCCCGTCTTTGCTTT (sugars l3 d10 l3, PS) | 31.3 % of control
71 | GTCCTAATCCTGTGC (sugars l3 d9 l3, PS) | 36.5 % of control
72 | GTCCTAATCCTGTGCT (sugars l3 d10 l3, PS) | 87.8 % of control
73 | GTCCTCACTTTACACATT (sugars l3 d13 l2, PS) | 41 % of control
74 | GTCGATGCTGCCGG (sugars l3 d8 l3, PS) | 36.5 % of control
75 | GTCGATGCTGCCGGTG (sugars l3 d10 l3, PS) | 0 % of control
76 | GTCTACCATGTCGATGCTGC (sugars l3 d14 l3, PS) | 23.2 % of control
77 | GTCTCAAATCAAACTA (sugars l4 d8 l4, PS) | 60.6 % of control
78 | GTCTGAGCTACCAGGA (sugars l3 d10 l3, PS) | 11.7 % of control
79 | GTCTGGCATGGGCAC (sugars l3 d9 l3, PS) | 62.9 % of control
80 | GTCTGTCTTGGCTTTG (sugars l3 d10 l3, PS) | 0 % of control
81 | GTCTTCACATCCCAACT (sugars l4 d11 l2, PS) | 82.1 % of control
82 | GTCTTCCTGAAGGACACCTG (sugars l3 d14 l3, PS) | 0 % of control
83 | GTCTTGGCTTTGGCGT (sugars l3 d10 l3, PS) | 20.9 % of control
84 | GTCTTTATTAACACTCC (sugars l4 d11 l2, PS) | 63.3 % of control
85 | GTCTTTGCTTTTACTGACCA (sugars l3 d14 l3, PS) | 44.4 % of control
86 | GTGACAGAAGAGACGT (sugars l3 d10 l3, PS) | 0 % of control
87 | GTGATATTGTCCAGGG (sugars l3 d10 l3, PS) | 14.8 % of control
88 | GTGATATTGTCCAGGGACCC (sugars l3 d14 l3, PS) | 0 % of control
89 | GTGATGCAGGAGTT (sugars l3 d8 l3, PS) | 64.8 % of control
90 | GTGATGCAGGAGTTGT (sugars l3 d10 l3, PS) | 13.5 % of control
91 | GTGATTAACCAATTAACCGA (sugars l3 d14 l3, PS) | 6.48 % of control
92 | GTGGCGGTGACTGCGA (sugars l3 d10 l3, PS) | 62.6 % of control

Row | Sequence | calcium oscillation score
93 | GTGGGTGATATTGTCCAGGG (sugars l3 d14 l3, PS) | 0 % of control
94 | GTGTTTGATATTATCC (sugars l3 d10 l3, PS) | 46.7 % of control
95 | GTTAACTCATCAACAC (sugars l4 d9 l3, PS) | 59 % of control
96 | GTTAACTCATCAACACC (sugars l4 d10 l3, PS) | 86.6 % of control
97 | GTTAAGTGATTAACCAATTA (sugars l3 d14 l3, PS) | 84.3 % of control
98 | GTTAGCCCTAAAGT (sugars l3 d8 l3, PS) | 61 % of control
99 | GTTAGCCCTAAAGTCC (sugars l3 d10 l3, PS) | 110 % of control
100 | GTTAGCCCTAAAGTCCCAGG (sugars l3 d14 l3, PS) | 27.9 % of control
101 | GTTATACAGTTGGCCCTACC (sugars l3 d14 l3, PS) | 14.3 % of control
102 | GTTGCCTAATGAGCCA (sugars l3 d10 l3, PS) | 46.1 % of control
103 | GTTGCCTAATGAGCCACACT (sugars l3 d14 l3, PS) | 59.8 % of control
104 | GTTGGATCAGAGGGTC (sugars l3 d10 l3, PS) | 22.2 % of control
105 | GTTTATGATGGATGTTGCCT (sugars l3 d14 l3, PS) | 3.32 % of control
106 | GTTTGTAGACTATT (sugars l3 d8 l3, PS) | 125 % of control
107 | GTTTGTAGACTATTT (sugars l3 d9 l3, PS) | 0 % of control
108 | GTTTTCAAACACACCTT (sugars l3 d10 l4, PS) | 104 % of control
109 | GTTTTTTAACTCCCAAC (sugars l4 d9 l4, PS) | 74.1 % of control
110 | TAAAGTCCCAGGTC (sugars l3 d8 l3, PS) | 72.4 % of control
111 | TAAAGTCCCAGGTCT (sugars l3 d9 l3, PS) | 124 % of control
